Data as given in PubChem BioAssay (NCI).
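Step 1: Grow cells in 96-well plates. Step 2: Expose to compound for 48 hours at 5 concentrations. Step 3: Interpolate endpoints linearly; if unreached, use highest concentration. At the GI50, growth is halved. The concentration for full growth arrest is given as TGI.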

Legend:
Assay in all cases: inhibition of tumour cell growth, NCI panel, 48 h
786-0 renal = system: 786-0 renal
A498 renal = system: A498 renal
ACHN renal = system: ACHN renal
CAKI-1 renal = system: CAKI-1 renal
CCRF-CEM leukemia = system: CCRF-CEM leukemia
COLO 205 colon = system: COLO 205 colon
EKVX NSCLC = system: EKVX NSCLC
HCC-2998 colon = system: HCC-2998 colon
HCT-116 colon = system: HCT-116 colon
HCT-15 colon = system: HCT-15 colon
HOP-62 NSCLC = system: HOP-62 NSCLC
HOP-92 NSCLC = system: HOP-92 NSCLC
HS 578T breast = system: HS 578T breast
HT29 colon = system: HT29 colon
IGROV1 ovarian = system: IGROV1 ovarian
K-562 leukemia = system: K-562 leukemia
KM12 colon = system: KM12 colon
LOX IMVI melanoma = system: LOX IMVI melanoma
M14 melanoma = system: M14 melanoma
MDA-MB-231 breast = system: MDA-MB-231 breast
MDA-MB-435 = system: MDA-MB-435
MOLT-4 leukemia = system: MOLT-4 leukemia
NCI-H226 lung = system: NCI-H226 lung
NCI-H23 lung = system: NCI-H23 lung
NCI-H460 lung = system: NCI-H460 lung
NCI-H522 lung = system: NCI-H522 lung
NCI/ADR-RES ovarian = system: NCI/ADR-RES ovarian
OVCAR-3 ovarian = system: OVCAR-3 ovarian
OVCAR-4 ovarian = system: OVCAR-4 ovarian
OVCAR-5 ovarian = system: OVCAR-5 ovarian
OVCAR-8 ovarian = system: OVCAR-8 ovarian
PC-3 prostate = system: PC-3 prostate
RPMI-8226 leukemia = system: RPMI-8226 leukemia
SF-268 CNS = system: SF-268 CNS
SF-295 CNS = system: SF-295 CNS
SF-539 CNS = system: SF-539 CNS
SK-MEL-2 melanoma = system: SK-MEL-2 melanoma
SK-MEL-28 melanoma = system: SK-MEL-28 melanoma
SK-MEL-5 melanoma = system: SK-MEL-5 melanoma
SK-OV-3 ovarian = system: SK-OV-3 ovarian
SN12C renal = system: SN12C renal
SNB-19 CNS = system: SNB-19 CNS
SNB-75 CNS = system: SNB-75 CNS
SR leukemia = system: SR leukemia
SW-620 colon = system: SW-620 colon
T-47D breast = system: T-47D breast
TK-10 renal = system: TK-10 renal
U251 CNS = system: U251 CNS
UO-31 renal = system: UO-31 renal
DU-145 prostate = system: DU-145 prostate
HL-60(TB) leukemia = system: HL-60(TB) leukemia
MCF7 breast = system: MCF7 breast
RXF 393 renal = system: RXF 393 renal
UACC-257 melanoma = system: UACC-257 melanoma
UACC-62 melanoma = system: UACC-62 melanoma

Cc1cc(-c2no[n+]([O-])c2-c2cc(C)sc2S(C)(=O)=O)c(S(C)(=O)=O)s1
TGI (786-0 renal): > 100 µM | TGI (A498 renal): > 100 µM | TGI (ACHN renal): > 100 µM | TGI (CAKI-1 renal): > 100 µM | TGI (CCRF-CEM leukemia): > 100 µM | TGI (COLO 205 colon): > 100 µM | TGI (EKVX NSCLC): > 100 µM | TGI (HCC-2998 colon): > 100 µM | TGI (HCT-116 colon): > 100 µM | TGI (HCT-15 colon): > 100 µM | TGI (HOP-62 NSCLC): > 100 µM | TGI (HOP-92 NSCLC): > 100 µM | TGI (HS 578T breast): > 100 µM | TGI (HT29 colon): > 100 µM | TGI (IGROV1 ovarian): > 100 µM | TGI (K-562 leukemia): > 100 µM | TGI (KM12 colon): > 100 µM | TGI (LOX IMVI melanoma): > 100 µM | TGI (M14 melanoma): > 100 µM | TGI (MDA-MB-231 breast): > 100 µM | TGI (MDA-MB-435): > 100 µM | TGI (MOLT-4 leukemia): > 100 µM | TGI (NCI-H226 lung): > 100 µM | TGI (NCI-H23 lung): > 100 µM | TGI (NCI-H460 lung): > 100 µM | TGI (NCI-H522 lung): > 100 µM | TGI (NCI/ADR-RES ovarian): > 100 µM | TGI (OVCAR-3 ovarian): > 100 µM | TGI (OVCAR-4 ovarian): > 100 µM | TGI (OVCAR-5 ovarian): > 100 µM | TGI (OVCAR-8 ovarian): > 100 µM | TGI (PC-3 prostate): > 100 µM | TGI (RPMI-8226 leukemia): > 100 µM | TGI (SF-268 CNS): > 100 µM | TGI (SF-295 CNS): > 100 µM | TGI (SF-539 CNS): > 100 µM | TGI (SK-MEL-2 melanoma): > 100 µM | TGI (SK-MEL-28 melanoma): > 100 µM | TGI (SK-MEL-5 melanoma): > 100 µM | TGI (SK-OV-3 ovarian): > 100 µM | TGI (SN12C renal): > 100 µM | TGI (SNB-19 CNS): 75.1 µM | TGI (SNB-75 CNS): > 100 µM | TGI (SR leukemia): > 100 µM | TGI (SW-620 colon): > 100 µM | TGI (T-47D breast): > 100 µM | TGI (TK-10 renal): > 100 µM | TGI (U251 CNS): > 100 µM | TGI (UO-31 renal): > 100 µM

O=C1CC(c2ccccc2Cl)Oc2ccccc21 (configuration not stated)
TGI (786-0 renal): 89.5 µM | TGI (A498 renal): > 100 µM | TGI (CAKI-1 renal): > 100 µM | TGI (CCRF-CEM leukemia): > 100 µM | TGI (COLO 205 colon): 68.2 µM | TGI (DU-145 prostate): > 100 µM | TGI (EKVX NSCLC): > 100 µM | TGI (HCC-2998 colon): > 100 µM | TGI (HCT-116 colon): > 100 µM | TGI (HCT-15 colon): 61 µM | TGI (HL-60(TB) leukemia): > 100 µM | TGI (HOP-62 NSCLC): 91.1 µM | TGI (HOP-92 NSCLC): 75.2 µM | TGI (HS 578T breast): > 100 µM | TGI (HT29 colon): 22.7 µM | TGI (IGROV1 ovarian): > 100 µM | TGI (K-562 leukemia): 40.8 µM | TGI (KM12 colon): 81.7 µM | TGI (LOX IMVI melanoma): > 100 µM | TGI (M14 melanoma): > 100 µM | TGI (MCF7 breast): 45.4 µM | TGI (MDA-MB-231 breast): 47.4 µM | TGI (MDA-MB-435): 43.7 µM | TGI (NCI-H226 lung): 30.1 µM | TGI (NCI-H460 lung): > 100 µM | TGI (NCI/ADR-RES ovarian): 48.8 µM | TGI (OVCAR-4 ovarian): > 100 µM | TGI (OVCAR-8 ovarian): 87.1 µM | TGI (PC-3 prostate): > 100 µM | TGI (RPMI-8226 leukemia): 40.7 µM | TGI (RXF 393 renal): 63.5 µM | TGI (SF-268 CNS): > 100 µM | TGI (SF-295 CNS): > 100 µM | TGI (SF-539 CNS): 34.8 µM | TGI (SK-MEL-2 melanoma): 59.9 µM | TGI (SK-MEL-28 melanoma): > 100 µM | TGI (SK-MEL-5 melanoma): > 100 µM | TGI (SK-OV-3 ovarian): > 100 µM | TGI (SNB-19 CNS): > 100 µM | TGI (SNB-75 CNS): > 100 µM | TGI (SR leukemia): 50.9 µM | TGI (SW-620 colon): 67.5 µM | TGI (T-47D breast): > 100 µM | TGI (TK-10 renal): > 100 µM | TGI (U251 CNS): 83 µM | TGI (UACC-257 melanoma): > 100 µM | TGI (UACC-62 melanoma): > 100 µM | TGI (UO-31 renal): > 100 µM

CCCCCCCCCCCC[n+]1c(C)cc(N)c2ccccc21
GI50 (DU-145 prostate): 0.67 µM | TGI (DU-145 prostate): 1.97 µM | GI50 (HOP-92 NSCLC): 0.167 µM | TGI (HOP-92 NSCLC): 1.19 µM | GI50 (NCI/ADR-RES ovarian): 3.18 µM | TGI (NCI/ADR-RES ovarian): > 100 µM | GI50 (OVCAR-4 ovarian): 0.327 µM | TGI (OVCAR-4 ovarian): 1.6 µM | GI50 (OVCAR-5 ovarian): 1.57 µM | TGI (OVCAR-5 ovarian): 3.28 µM | GI50 (SK-MEL-2 melanoma): 1.27 µM | TGI (SK-MEL-2 melanoma): 2.72 µM | GI50 (SK-MEL-28 melanoma): 1.18 µM | TGI (SK-MEL-28 melanoma): 2.47 µM | GI50 (SK-MEL-5 melanoma): 0.364 µM | TGI (SK-MEL-5 melanoma): 1.4 µM | GI50 (SK-OV-3 ovarian): 1.13 µM | TGI (SK-OV-3 ovarian): 2.36 µM | GI50 (UACC-257 melanoma): 0.249 µM | TGI (UACC-257 melanoma): 0.915 µM
